The experiment deals with T1, BRD4 (Homo sapiens, UniProt O60885).
T1 construct: Mean 488 intensity of BRD4 quantitated in nuclear region; endogenous in cells; host or cells: EoL-1 eosinophilic leukemia cells
Kind of experiment: BRD4 degradation assay in EOL1 cells (immunofluorescence imaging). Format: cell-based. The following applies: EoL-1 eosinophilic leukemia cells, 4 hours treatment, nuclear BRD4 immunofluorescence. On the procedure: BRD4 Degradation Assay in EOL1 Cells
EoL-1 eosinophilic leukemia cells were seeded on day 1 at a density of 45,000 cells per well in Corning PureCoat Amine Microplates, (Corning #354719) in 45 μL/well of assay media (RPMI, 10% FBS, containing L-glutamine). After cells attached to cell plate, compounds were serially diluted ⅓ in dimethylsulfoxide (DMSO) to create 20-point dilutions across a 384 well v-bottom polypropylene microplate (Greiner #781091). 2 μL of each sample from the serial dilution was transferred to 98 μL of assay media as an intermediate dilution. 5 μL of each well of the intermediate dilution was added to 45 μL of cell plate. Columns 1, 2, 23 and 24 were treated with only 0.2% final concentration of DMSO for data normalization as “neutral controls”. After compound treatment, cell plates were stored in a 37° C. incubator for 4 hours. After 4 hours cells were fixed in 3.7% w/v final concentration of paraformaldehyde by addition of 15 μL of 16% w/v paraformaldehyde (Electron Microscopy Sciences #15710-S) directly to the 50 μL media and compound in the cell plate. Cell plate was incubated at RT for 20 minutes. Well contents were aspirated and washed with 100 μL/well PBS 3 times. 50 ul/well of phosphate Buffered Saline (PBS) (pH 7.5) containing 0.5% w/v bovine serum albumen, 0.5% w/v Triton X-100 (Block/Permeabilization Buffer) was added to each well. Samples were incubated for 20 minutes. Well contents were aspirated and washed 3 times with 100 μL/well of PBS. PBS was aspirated from the well and 50 μL per well of EoL-1 Block Buffer (PBS containing 10% Normal Goat Serum (AbCam #ab7481)) was added to each well. Plates were incubated at room temperature for 30 minutes. Block buffer was decanted from the wells. Immunofluorescence staining of BRD4 was carried out by diluting mAB Anti-BRD4 [EPR5150] antibody (Abcam 128874) 1:500 into Antibody Dilution Buffer (PBS, 2% Normal Goat Serum). 25 μL per well of BRD4 antibody diluted in buffer was added and incubated overnight at 4° C.
On day-2 samples were washed 3 times with 100 μL/well of PBS. 25 μL/well of secondary antibody solution (Goat Anti-Rabbit IgG, DyLight 488 Conjugated Highly Cross-adsorbed Thermo Fisher #35553) and Hoechst 33342 1 μg/ml diluted in Antibody Dilution Buffer) were dispensed into each well. Hoechst 33342 only was added to bottom 3 columns for data normalization as “inhibitor controls”. Samples were incubated for 2 hours at room temperature. Samples were washed 3 times with 100 μL PBS. Quantitative fluorescence imaging of BRD4 was carried out using an Opera Phenix High-Content Screening System. Fluorescent images of the samples were captured using 488 nm and 405 nm channels. Hoechst channel was used to identify nuclear region. Mean 488 intensity of BRD4 quantitated in nuclear region. Data analysis was carried out using Genedata Screener, with DMSO and no primary antibody control treated samples being used to define the 0% and 100% changes in BRD4. The dose-response log(inhibitor) vs. response used to define the inflexion point of curve (DC50) and the plateau of the maximal effect.
The individual topological polar surface area (TPSA) and cLogP values were calculated using Chemdraw v. 15.1 (PerkinElmer). Half life of the ternary VHL/BD1 and VHL/BD2 complexes, DC50 of BRD4 in EOL1 cells, topological polar surface area of a molecule (TPSA) and c log P (lipophilicity) for compounds described herein are provided in Table 3.

SMILES strings stand for the structures. Starred links: 1 amine or outer side, 2 acyl side, 3 side chain; linkers in the order of their positions; H or OH if unused. Positions of bridges follow the written chain, without caps; N, C: chain ends. Non-standard residues stand in square brackets, D forms with d. Residues, ends and D or L forms follow the SMILES beside them. *: point of attachment. JQ1acid = Cc1sc2c(c1C)C(c1ccc(Cl)cc1)=N[C@@H](CC(=O)*)c1nnc(C)n1-2; dPhg(4-(4-Me-thiazol-5-yl)) = Cc1ncsc1-c1ccc([C@@H](N)C(=O)O)cc1; Phg(4-(4-Me-thiazol-5-yl)) = Cc1ncsc1-c1ccc([C@H](N)C(=O)O)cc1; X3 = Cc1ncsc1-c1ccc(C(N[*:1])C(=O)[*:2])cc1; Hyp = O=C(O)[C@@H]1C[C@@H](O)CN1; Tle = CC(C)(C)[C@H](N)C(=O)O; d(hCys) = N[C@H](CCS)C(=O)O; dDab = NCC[C@@H](N)C(=O)O; dNMeC = CN[C@H](CS)C(=O)O; dDap = NC[C@@H](N)C(=O)O; Dap = NC[C@H](N)C(=O)O; AEA = NCCOCC(=O)O; βAla = NCCC(=O)O Some results are limits rather than exact numbers.

In the case of `Cc1ncsc1-c1ccc([C@H]2NC(=O)[C@@H]3C[C@@H](O)CN3C(=O)[C@H](C(C)(C)C)NC(=O)CSC[C@H](C(N)=O)NC(=O)[C@@H](CNC(=O)C[C@@H]3N=C(c4ccc(Cl)cc4)c4c(sc(C)c4C)-n4c(C)nnc43)NC(=O)CNC2=O)cc1` [Compound 1] ({CH2CO}-[Tle][Hyp][dPhg(4-(4-Me-thiazol-5-yl))]G[dDap](JQ1acid)[dC]-NH2; thioether N-6), the half-maximal degradation concentration (DC50) – broadly, the concentration at which degradation of the target reaches its halfway point – was under 1 µM.

As for `Cc1ncsc1-c1ccc([C@@H]2NC(=O)[C@@H]3C[C@@H](O)CN3C(=O)[C@H](C(C)(C)C)NC(=O)CSC[C@H](C(N)=O)NC(=O)[C@@H](CNC(=O)C[C@@H]3N=C(c4ccc(Cl)cc4)c4c(sc(C)c4C)-n4c(C)nnc43)NC(=O)CNC2=O)cc1` [Compound 2] ({CH2CO}-[Tle][Hyp][Phg(4-(4-Me-thiazol-5-yl))]G[dDap](JQ1acid)[dC]-NH2; thioether N-6), the half-maximal degradation concentration (DC50) was over 20 µM.

In the case of `Cc1ncsc1-c1ccc(C2NC(=O)[C@@H]3C[C@@H](O)CN3C(=O)[C@H](C(C)(C)C)NC(=O)CSCC[C@H](C(N)=O)NC(=O)[C@@H](CNC(=O)C[C@@H]3N=C(c4ccc(Cl)cc4)c4c(sc(C)c4C)-n4c(C)nnc43)NC(=O)CNC2=O)cc1` (some centres unmarked) [Compound 3] ({CH2CO}-[Tle][Hyp][X3]G[dDap](JQ1acid)[d(hCys)]-NH2; thioether N-6), the 50% degradation concentration (DC50) was under 1 µM.

The molecule `Cc1ncsc1-c1ccc(C2NC(=O)[C@@H]3C[C@@H](O)CN3C(=O)[C@H](C(C)(C)C)NC(=O)CSC[C@H](C(N)=O)NC(=O)[C@@H](CNC(=O)C[C@@H]3N=C(c4ccc(Cl)cc4)c4c(sc(C)c4C)-n4c(C)nnc43)NC(=O)CCNC2=O)cc1` (some centres unmarked) [Compound 4] ({CH2CO}-[Tle][Hyp][X3][βAla][dDap](JQ1acid)[dC]-NH2; thioether N-6) had a half-maximal degradation concentration (DC50) of under 20 µM.

`Cc1ncsc1-c1ccc([C@H]2NC(=O)[C@@H]3C[C@@H](O)CN3C(=O)[C@H](C(C)(C)C)NC(=O)CSCC[C@H](C(N)=O)NC(=O)[C@@H](CNC(=O)C[C@@H]3N=C(c4ccc(Cl)cc4)c4c(sc(C)c4C)-n4c(C)nnc43)NC(=O)CCNC2=O)cc1` [Compound 5] ({CH2CO}-[Tle][Hyp][dPhg(4-(4-Me-thiazol-5-yl))][βAla][dDap](JQ1acid)[d(hCys)]-NH2; thioether N-6): the DC50 is under 20 µM.

In turn, `Cc1ncsc1-c1ccc([C@H]2NC(=O)[C@@H]3C[C@@H](O)CN3C(=O)[C@H](C(C)(C)C)NC(=O)CNC(=O)[C@H](CCC(N)=O)NC(=O)[C@@H](CNC(=O)C[C@@H]3N=C(c4ccc(Cl)cc4)c4c(sc(C)c4C)-n4c(C)nnc43)NC(=O)CNC2=O)cc1` [Compound 6] (cyclo(G[Tle][Hyp][dPhg(4-(4-Me-thiazol-5-yl))]G[dDap](JQ1acid)Q)) displayed a DC50 of under 20 µM.

Regarding `Cc1ncsc1-c1ccc([C@@H]2NC(=O)[C@@H]3C[C@@H](O)CN3C(=O)[C@H](C(C)(C)C)NC(=O)CNC(=O)[C@H](CCC(N)=O)NC(=O)[C@@H](CNC(=O)C[C@@H]3N=C(c4ccc(Cl)cc4)c4c(sc(C)c4C)-n4c(C)nnc43)NC(=O)CNC2=O)cc1` [Compound 7] (cyclo(G[Tle][Hyp][Phg(4-(4-Me-thiazol-5-yl))]G[dDap](JQ1acid)Q)), the 50% degradation concentration (DC50) is under 20 µM.

`Cc1sc2c(c1C)C(c1ccc(Cl)cc1)=N[C@@H](CC(=O)NC[C@H]1NC(=O)CNC(=O)[C@@H](C)NC(=O)[C@@H]3C[C@@H](O)CN3C(=O)[C@H](C(C)(C)C)NC(=O)CSC[C@H](C(N)=O)NC1=O)c1nnc(C)n1-2` [Compound 8] ({CH2CO}-[Tle][Hyp][dA]G[dDap](JQ1acid)[dC]-NH2; thioether N-6) registered a DC50 of under 20 µM.

For `Cc1ncsc1-c1ccc([C@H]2NC(=O)[C@@H]3C[C@@H](O)CN3C(=O)[C@H](C(C)(C)C)NC(=O)CSC[C@H](C(N)=O)NC(=O)[C@@H](CCNC(=O)C[C@@H]3N=C(c4ccc(Cl)cc4)c4c(sc(C)c4C)-n4c(C)nnc43)NC(=O)CNC2=O)cc1` [Compound 9] ({CH2CO}-[Tle][Hyp][dPhg(4-(4-Me-thiazol-5-yl))]G[dDab](JQ1acid)[dC]-NH2; thioether N-6), the half-maximal degradation concentration (DC50) was over 20 µM.

The molecule `Cc1ncsc1-c1ccc([C@@H]2NC(=O)[C@@H]3C[C@@H](O)CN3C(=O)[C@H](C(C)(C)C)NC(=O)CSC[C@H](C(N)=O)NC(=O)[C@@H](CCNC(=O)C[C@@H]3N=C(c4ccc(Cl)cc4)c4c(sc(C)c4C)-n4c(C)nnc43)NC(=O)CNC2=O)cc1` [Compound 10] ({CH2CO}-[Tle][Hyp][Phg(4-(4-Me-thiazol-5-yl))]G[dDab](JQ1acid)[dC]-NH2; thioether N-6) registered a DC50 of over 20 µM.

For `Cc1ncsc1-c1ccc([C@H]2NC(=O)[C@@H]3C[C@@H](O)CN3C(=O)[C@H](C(C)(C)C)NC(=O)CSC[C@H](C(=O)NCC(=O)NCC(=O)NCC(N)=O)NC(=O)[C@@H](CNC(=O)C[C@@H]3N=C(c4ccc(Cl)cc4)c4c(sc(C)c4C)-n4c(C)nnc43)NC(=O)CNC2=O)cc1` [Compound 11] ({CH2CO}-[Tle][Hyp][dPhg(4-(4-Me-thiazol-5-yl))]G[dDap](JQ1acid)[dC]GGG-NH2; thioether N-6), the half-maximal degradation concentration (DC50) was over 20 µM.

For `Cc1ncsc1-c1ccc([C@H]2NC(=O)[C@@H]3C[C@@H](O)CN3C(=O)[C@H](C(C)(C)C)NC(=O)CSC[C@H](C(N)=O)NC(=O)[C@@H](CNC(=O)C[C@@H]3N=C(c4ccc(Cl)cc4)c4c(sc(C)c4C)-n4c(C)nnc43)NC(=O)[C@H](C)NC2=O)cc1` [Compound 12] ({CH2CO}-[Tle][Hyp][dPhg(4-(4-Me-thiazol-5-yl))]A[dDap](JQ1acid)[dC]-NH2; thioether N-6), the DC50 is over 20 µM.

`Cc1ncsc1-c1ccc([C@H]2NC(=O)[C@@H]3C[C@@H](O)CN3C(=O)[C@H](C(C)(C)C)NC(=O)CSC[C@H](C(N)=O)NC(=O)[C@H](CNC(=O)C[C@@H]3N=C(c4ccc(Cl)cc4)c4c(sc(C)c4C)-n4c(C)nnc43)NC(=O)CNC2=O)cc1` [Compound 13] ({CH2CO}-[Tle][Hyp][dPhg(4-(4-Me-thiazol-5-yl))]G[Dap](JQ1acid)[dC]-NH2; thioether N-6): the half-maximal degradation concentration (DC50) was over 20 µM.

For `Cc1ncsc1-c1ccc([C@@H]2NC(=O)[C@@H]3C[C@@H](O)CN3C(=O)[C@H](C(C)(C)C)NC(=O)CSC[C@H](C(N)=O)NC(=O)[C@H](CNC(=O)C[C@@H]3N=C(c4ccc(Cl)cc4)c4c(sc(C)c4C)-n4c(C)nnc43)NC(=O)CNC2=O)cc1` [Compound 14] ({CH2CO}-[Tle][Hyp][Phg(4-(4-Me-thiazol-5-yl))]G[Dap](JQ1acid)[dC]-NH2; thioether N-6), the DC50 is over 20 µM.

Turning to `Cc1ncsc1-c1ccc([C@H]2NC(=O)[C@@H]3C[C@@H](O)CN3C(=O)[C@H](C(C)(C)C)NC(=O)CSC[C@H](C(N)=O)N(C)C(=O)[C@@H](CNC(=O)C[C@@H]3N=C(c4ccc(Cl)cc4)c4c(sc(C)c4C)-n4c(C)nnc43)NC(=O)CNC2=O)cc1` [Compound 15] ({CH2CO}-[Tle][Hyp][dPhg(4-(4-Me-thiazol-5-yl))]G[dDap](JQ1acid)[dNMeC]-NH2; thioether N-6), the 50% degradation concentration (DC50) is under 20 µM.

Regarding `Cc1ncsc1-c1ccc([C@H]2NC(=O)[C@@H]3C[C@@H](O)CN3C(=O)[C@H](C(C)(C)C)NC(=O)COCCNC(=O)[C@@H](CNC(=O)C[C@@H]3N=C(c4ccc(Cl)cc4)c4c(sc(C)c4C)-n4c(C)nnc43)NC(=O)CNC2=O)cc1` [Compound 16] (cyclo([AEA][Tle][Hyp][dPhg(4-(4-Me-thiazol-5-yl))]G[dDap](JQ1acid))), the 50% degradation concentration (DC50) was under 1 µM.

`Cc1ncsc1-c1ccc([C@@H]2NC(=O)[C@@H]3C[C@@H](O)CN3C(=O)[C@H](C(C)(C)C)NC(=O)COCCNC(=O)[C@@H](CNC(=O)C[C@@H]3N=C(c4ccc(Cl)cc4)c4c(sc(C)c4C)-n4c(C)nnc43)NC(=O)CNC2=O)cc1` [Compound 17] (cyclo([AEA][Tle][Hyp][Phg(4-(4-Me-thiazol-5-yl))]G[dDap](JQ1acid))) showed a DC50 of under 1 µM.

Values taken from patent US12187816B2, “Macrocyclic compounds and methods of use thereof” (Genentech, Inc., priority 2020, dated 2025).
